This is an account of results in patent US3941842A, “P,P'-Disubstituted α-trichloromethylbenzylanilines” (priority 1972, dated 1976).

Several values for one entry are separate records, joined by “and”; a condition that tells them apart may be missing. Identical values can stand only once.

One data set has as its system Musca domestica Snaidm. Put plainly: Topical LD50 to adult female SNAIDM houseflies. The note with it: for LD50: Musca domestica, read-out: Topical LD50, Musca domestica Snaidm, Alone; for LD50 / Topical LD50, Musca domestica Snaidm, with pb: topical; for Topical LD50, Musca domestica Snaidm, with pb: SNAIDM strain, synergized with piperonyl butoxide; for SR, Musca domestica Snaidm: synergistic ratio: LD50 alone/LD50 synergized with piperonyl butoxide. The protocol: (§1) The compounds of the present invention were tested for insecticidal activity by standard methods, and compared with the insecticidal activities of DDT and symmetrical analogs of DDT, such methoxychlor. Toxicological methods for the determination of the topical LD50 values to adult female SNAIDM and RSP houseflies, Musca domestica L. and to Phormia regina, and LC50 values to Culex pipiens quinquefasciatus Say, and Anopheles albimanus Weid mosquitoes were described by Metcalf el al., 44 Bull. World Health Org. 363 (1971). The methods for evaluation of metabolism by mouse liver homogenate and by female RSP housefly and salt-marsh caterpillar larvae Estigmene acrea Drury, were described by Kapoor et al., 18 J. Agr. Food Chem. 1145 (1970). The techniques for model eocsystem evluation were described by Metcalf et al., 5 J. Environ. Sci. Tech. 709 (1971).
(§2) Since piperonyl butoxide serves to block the action of MFO, the synergized LD50 values express the intrinsic toxicity of the compounds. With the detoxifying action of MFO enzymes blocked, the intrinsic toxicity of the compounds can thus be measured.

A further data set concerns Musca domestica Rsp. Nature of the data set: Topical LD50 to adult female RSP houseflies. The note with it: for LD50: Musca domestica, read-out: Topical LD50, Musca domestica Rsp, Alone; for LD50 / Topical LD50, Musca domestica Rsp, with pb: topical; for Topical LD50, Musca domestica Rsp, with pb: RSP strain, synergized with piperonyl butoxide; for SR, Musca domestica Rsp: synergistic ratio: LD50 alone/LD50 synergized with piperonyl butoxide. As for the experimental part:
as §1, §2

The next data set has as its system Phormia regina. Put plainly: whole plant or invertebrate. Particulars: for LD50: Phormia regina, read-out: Topical LD50, Phormia regina, Alone; for LD50 / Topical LD50, Phormia regina, with pb: topical; for Topical LD50, Phormia regina, with pb: synergized with piperonyl butoxide; for SR, Phormia regina: synergistic ratio: LD50 alone/LD50 synergized with piperonyl butoxide. As for the experimental part:
as §1, with “363 (1971).” left out, “Food Chem. 1145 (1970).” left out, “Tech.” for “Tech. 709 (1971).”
as §2

For another data set, the system named is Culex fatigans larvae. Put plainly: LC50 to Culex fatigans larvae. The format is in vivo, Culex pipiens quinquefasciatus Say. From the text: (§3) World Health Org. 363 (1971). […] Food Chem. 1145 (1970). […] Sci. Tech. 709 (1971). The results are detailed in Table II. ##SPC1##
Data set [1] relates to Anopheles albimanus larvae. Put plainly: LC50 to Anopheles albimanus larvae. It counts as in vivo, Anopheles albimanus Weid.
From the text: as §3

Data set [2] concerns Musca domestica (SNAIDM and RSP strains), Phormia regina, Culex fatigans and Anopheles albimanus. Put plainly: Insecticidal activity over the test insects (Table II, summarised in words). The format is in vivo. Particulars: for insecticidal effectiveness / toxicity (in words): overall, test insects of Table II. As for the experimental part: as §1, §2

As a reminder, the LD50 is the dose at which mortality reaches 50%. As for `COc1ccc(NC(c2ccc(OC)cc2)C(Cl)(Cl)Cl)cc1` (stereo not shown) [Compound II], in the data set on Musca domestica Snaidm, the LD50 is greater than 500 mg/kg; the “Topical LD50, Musca domestica Snaidm, with pb” value was determined as 5.5 μg per g; the “SR, Musca domestica Snaidm” value was 100 and > 100. Moreover, in the data set on Musca domestica Rsp, the 50% lethal dose (LD50) came to 500 mg/kg; the “Topical LD50, Musca domestica Rsp, with pb” value was 13.5 μg per g; the “SR, Musca domestica Rsp” value is 37 and > 37. In addition, in the data set on Phormia regina, the LD50 was determined as 118 mg/kg and the “Topical LD50, Phormia regina, with pb” value was 35.0 μg per g. The “synergism in Phormia (in words)” value with Phormia regina (with piperonyl butoxide) was “substantially synergized in Phormia”. In the data set on Culex fatigans larvae, the “LC50 Culex fatigans larvae” value is given as greater than 1.0 ppm. Also, the “LC50 Anopheles albimanus larvae” value in data set [1] is listed as 0.64 ppm. Further, in data set [2], the “insecticidal effectiveness / toxicity (in words)” value was “very low toxicity”.
On to `Cc1ccc(NC(c2ccc(C)cc2)C(Cl)(Cl)Cl)cc1` (stereo not shown) [IV], for which, in the data set with Musca domestica Snaidm, the median lethal dose (LD50) turned out to be 43 mg/kg; the “Topical LD50, Musca domestica Snaidm, with pb” value worked out at 5.0 μg per g; the “SR, Musca domestica Snaidm” value came out at 8.6. In the data set with Musca domestica Rsp, the LD50 worked out at 43 mg/kg; the “Topical LD50, Musca domestica Rsp, with pb” value was determined as 6.5 μg per g; the “SR, Musca domestica Rsp” value amounted to 6.6. Moreover, in the data set on Phormia regina, the LD50 turned out to be 33.7 mg/kg and the “Topical LD50, Phormia regina, with pb” value amounted to 21.0 μg per g. In the data set with Culex fatigans larvae, the “LC50 Culex fatigans larvae” value turned out to be 0.18 ppm. The “LC50 Anopheles albimanus larvae” value in data set [1] is given as 0.21 ppm. Also, in data set [2], the “insecticidal effectiveness / toxicity (in words)” value was “one of the more insecticidal compounds”.
As to `Clc1ccc(NC(c2ccc(Cl)cc2)C(Cl)(Cl)Cl)cc1` (stereo not shown) [Compound I], in the data set on Musca domestica Snaidm, the LD50 is 115 mg/kg; the “Topical LD50, Musca domestica Snaidm, with pb” value stood at 13.5 μg per g; the “SR, Musca domestica Snaidm” value stood at 8.5. In addition, in the data set on Musca domestica Rsp, the LD50 is 220 mg/kg; the “Topical LD50, Musca domestica Rsp, with pb” value stood at 25 μg per g; the “SR, Musca domestica Rsp” value came out at 8.8. Further, in the data set on Phormia regina, the median lethal dose (LD50) is greater than 250 mg/kg; the “SR, Phormia regina” value is recorded as greater than 5.5; the “Topical LD50, Phormia regina, with pb” value is on record as 42.5 μg per g. For the same molecule, the “LC50 Culex fatigans larvae” value in the data set on Culex fatigans larvae stood at 0.026 ppm. Further, the “LC50 Anopheles albimanus larvae” value in data set [1] stood at 0.090 ppm. Also, the “toxicity to adult insects (in words)” value in data set [2] (adult insects) was “low toxicity to adult insects”. Also, the “larvicidal effectiveness (in words)” value in data set [2] (mosquito larvae) is given as “very effective larvicide”.
For `COc1ccc(C(Nc2ccc(C3CCCCC3)cc2)C(Cl)(Cl)Cl)cc1` (stereo not shown) [XXVII], in the data set on Musca domestica Snaidm, the LD50 was greater than 500 mg/kg; the “Topical LD50, Musca domestica Snaidm, with pb” value was 48 μg per g; the “SR, Musca domestica Snaidm” value is on record as greater than 10. Moreover, in the data set on Musca domestica Rsp, the LD50 is greater than 500 mg/kg; the “Topical LD50, Musca domestica Rsp, with pb” value was 165 μg per g; the “SR, Musca domestica Rsp” value is greater than 3. For the same molecule, in the data set with Phormia regina, the LD50 is greater than 250 mg/kg and the “Topical LD50, Phormia regina, with pb” value is 112.5 μg per g. Further, in the data set on Culex fatigans larvae, the “LC50 Culex fatigans larvae” value came out at 1.0 ppm. Also, the “LC50 Anopheles albimanus larvae” value in data set [1] is greater than 1.0 ppm. The “insecticidal effectiveness / toxicity (in words)” value in data set [2] is “Toxicity was also substantially decreased”.
`COc1ccc(C(Nc2ccc(Cl)cc2)C(Cl)(Cl)Cl)cc1` (stereo not shown) [V]: in the data set on Musca domestica Snaidm, the LD50 came to 23 mg/kg; the “Topical LD50, Musca domestica Snaidm, with pb” value came out at 10.5 μg per g; the “SR, Musca domestica Snaidm” value is 2.2. In the data set with Musca domestica Rsp, the median lethal dose (LD50) was 35.5 mg/kg; the “Topical LD50, Musca domestica Rsp, with pb” value was determined as 12.0 μg per g; the “SR, Musca domestica Rsp” value was found to be 3.0. Moreover, in the data set with Phormia regina, the LD50 turned out to be 55 mg/kg; the “SR, Phormia regina” value was determined as 3.6; the “Topical LD50, Phormia regina, with pb” value is 15.2 μg per g. The “LC50 Culex fatigans larvae” value with Culex fatigans larvae is recorded as 0.068 ppm. Moreover, the “LC50 Anopheles albimanus larvae” value in data set [1] is 0.12 ppm.
